Measurements reported in PubChem BioAssay AID192 (DTP/NCI, 2004).
Values joined by “and” are separate entries in the source; they are usually repeats but may differ in a detail not shown here. Equal values may be shown once. Inconclusive results and toxic doses are left out.

Test system: BDF1 mice, B16 melanoma ip, median survival T/C
Assay: NCI In Vivo Anticancer Drug Screen. Data for tumor model B16 Melanoma (intraperitoneal) in B6D2F1 (BDF1) mice
Details: endpoint: median survival time, higher = longer survival
Outline: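 Vehicle-treated animals serve as the reference (C); treated animals (T) are scored for survival or tumor size after tumor transplantation.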

[1] = dose: 6.25 mg/kg/injection, schedule: Q01DX009 (ip), vehicle: other
[2] = dose: 100.0 mg/kg/injection, schedule: Q01DX009 (ip), vehicle: Klucel (hydroxypropylcellulose) (HPC)
[3] = dose: 200.0 mg/kg/injection, schedule: Q01DX009 (ip), vehicle: Klucel (hydroxypropylcellulose) (HPC)
[4] = dose: 50.0 mg/kg/injection, schedule: Q01DX009 (ip), vehicle: Klucel (hydroxypropylcellulose) (HPC)
[5] = dose: 12.5 mg/kg/injection, schedule: Q01DX009 (ip), vehicle: other
[6] = dose: 12.5 mg/kg/injection, schedule: Q01DX009 (ip), vehicle: saline with Tween-80
[7] = dose: 12.5 mg/kg/injection, schedule: Q01DX009 (ip), vehicle: saline
[8] = dose: 25.0 mg/kg/injection, schedule: Q01DX009 (ip), vehicle: saline with Tween-80
[9] = dose: 25.0 mg/kg/injection, schedule: Q01DX009 (ip), vehicle: saline
[10] = dose: 50.0 mg/kg/injection, schedule: Q01DX009 (ip), vehicle: saline with Tween-80
[11] = dose: 50.0 mg/kg/injection, schedule: Q01DX009 (ip), vehicle: saline
[12] = dose: 100.0 mg/kg/injection, schedule: Q01DX009 (ip), vehicle: saline
[13] = dose: 200.0 mg/kg/injection, schedule: Q01DX009 (ip), vehicle: saline
[14] = dose: 400.0 mg/kg/injection, schedule: Q01DX009 (ip), vehicle: Klucel (hydroxypropylcellulose) (HPC)
[15] = dose: 100.0 mg/kg/injection, schedule: Q01DX009 (ip), vehicle: carboxymethylcellulose (CMC)

SMILES: CC(=O)[O][Sn]([CH2]c1ccccc1)([CH2]c1ccccc1)[CH2]c1ccccc1
- T/C (dose: 1.5 mg/kg/injection, schedule: Q01DX009 (ip), vehicle: other): 101 % of control
- T/C (dose: 3.0 mg/kg/injection, schedule: Q01DX009 (ip), vehicle: other): 96 % of control
- T/C (dose: 6.0 mg/kg/injection, schedule: Q01DX009 (ip), vehicle: other): 103 % of control
- T/C [1]: 111 % of control

SMILES: Nc1ccc(OCc2ccc(S(=O)(=O)F)c(Cl)c2)c(Cl)c1
- T/C [2]: 110 % of control
- T/C [3]: 110 % of control

SMILES: CCN(CC)c1ccc(C=Nc2cccc(C(F)(F)F)c2)cc1
- T/C [4]: 103 % of control
- T/C [2]: 96 % of control
- T/C [3]: 96 % of control

SMILES: CCOC(=O)N(NC(=O)c1ccccc1)C(C)=O
- T/C [1]: 101 % of control
- T/C [5]: 99 % of control
- T/C (dose: 25.0 mg/kg/injection, schedule: Q01DX009 (ip), vehicle: other): 95 % of control
- T/C (dose: 50.0 mg/kg/injection, schedule: Q01DX009 (ip), vehicle: other): 95 % of control

SMILES: C[C@H]1[C@H](O)[C@H]2[C@@H](CCC3=CC(=O)CC[C@@]32C)[C@@H]2CC[C@H](O)[C@@]12C
- T/C (dose: 100.0 mg/kg/injection, schedule: Q01DX009 (ip), vehicle: saline with Tween-80): 94 % of control
- T/C (dose: 200.0 mg/kg/injection, schedule: Q01DX009 (ip), vehicle: saline with Tween-80): 100 % of control

SMILES: ClCC[N+]12CC[N+](CCCl)(CC1)C2
- T/C [6]: 95 % of control and 100 % of control
- T/C [7]: 112 % of control and 95 % of control
- T/C [8]: 104 % of control
- T/C [9]: 109 % of control and 105 % of control
- T/C [10]: 110 % of control and 116 % of control
- T/C [11]: 124 % of control and 101 % of control
- T/C [12]: 101 % of control
- T/C [13]: 100 % of control
- T/C (dose: 400.0 mg/kg/injection, schedule: Q01DX009 (ip), vehicle: saline): 107 % of control

SMILES: CCCCCCCCCCCCCC(=O)N(C)C
- T/C [7]: 97 % of control
- T/C [9]: 97 % of control
- T/C [10]: 93 % of control

SMILES: O=C(O)c1ccc(O)c([N+](=O)[O-])c1
- T/C [12]: 115 % of control
- T/C [13]: 87 % of control

SMILES: COc1cccc(C)c1[N+](=O)[O-]
- T/C (dose: 75.0 mg/kg/injection, schedule: Q04DX003 (ip), vehicle: Klucel (hydroxypropylcellulose) (HPC)): 92 % of control
- T/C (dose: 150.0 mg/kg/injection, schedule: Q04DX003 (ip), vehicle: Klucel (hydroxypropylcellulose) (HPC)): 109 % of control
- T/C (dose: 300.0 mg/kg/injection, schedule: Q04DX003 (ip), vehicle: Klucel (hydroxypropylcellulose) (HPC)): 90 % of control

SMILES: Cc1cccc(C2NC(=O)c3ccccc3N2)c1 (centres undefined)
- T/C [2]: 109 % of control
- T/C [3]: 112 % of control
- T/C [14]: 115 % of control

SMILES: CCC(=S)Nc1ccc(Cl)cc1
- T/C (dose: 25.0 mg/kg/injection, schedule: Q01DX009 (ip), vehicle: carboxymethylcellulose (CMC)): 100 % of control
- T/C (dose: 50.0 mg/kg/injection, schedule: Q01DX009 (ip), vehicle: carboxymethylcellulose (CMC)): 107 % of control
- T/C [15]: 103 % of control

SMILES: COC1C(O)=C2C(=O)OC(C)(O)/C=C/C=C\C=C/C=C/C(c3ccccc3)NC(=O)/C=C/C=C/C=C/C=C/C2(C)C1O (centres undefined)
- T/C (dose: 0.39 mg/kg/injection, schedule: Q01DX009 (ip), vehicle: Klucel (hydroxypropylcellulose) (HPC)): 103 % of control
- T/C (dose: 0.78 mg/kg/injection, schedule: Q01DX009 (ip), vehicle: Klucel (hydroxypropylcellulose) (HPC)): 104 % of control
- T/C (dose: 1.56 mg/kg/injection, schedule: Q01DX009 (ip), vehicle: Klucel (hydroxypropylcellulose) (HPC)): 96 % of control
- T/C (dose: 1.56 mg/kg/injection, schedule: Q01DX009 (ip), vehicle: other): 104 % of control
- T/C (dose: 3.12 mg/kg/injection, schedule: Q01DX009 (ip), vehicle: Klucel (hydroxypropylcellulose) (HPC)): 106 % of control
- T/C (dose: 3.12 mg/kg/injection, schedule: Q01DX009 (ip), vehicle: other): 103 % of control
- T/C [1]: 101 % of control
- T/C [5]: 97 % of control

SMILES: CCC(=O)c1ccccc1NC(C)=O
- T/C [2]: 102 % of control
- T/C [3]: 98 % of control
- T/C [14]: 97 % of control

SMILES: C=C(C)C(=O)OC1CCC2(C)C(CCC3C2CCC2(C)C(c4ccc(=O)oc4)CC4OC432)C1 (centres undefined)
- T/C (dose: 1.25 mg/kg/injection, schedule: Q01DX009 (ip), vehicle: saline with Tween-80): 100 % of control
- T/C (dose: 2.5 mg/kg/injection, schedule: Q01DX009 (ip), vehicle: saline with Tween-80): 94 % of control
- T/C (dose: 5.0 mg/kg/injection, schedule: Q01DX009 (ip), vehicle: saline with Tween-80): 96 % of control
- T/C (dose: 10.0 mg/kg/injection, schedule: Q01DX009 (ip), vehicle: saline with Tween-80): 107 % of control
- T/C (dose: 20.0 mg/kg/injection, schedule: Q01DX009 (ip), vehicle: saline with Tween-80): 102 % of control

SMILES: CS(=O)(=O)c1nnc(-c2ccccc2)s1
- T/C [15]: 111 % of control
- T/C (dose: 200.0 mg/kg/injection, schedule: Q01DX009 (ip), vehicle: carboxymethylcellulose (CMC)): 102 % of control

SMILES: CNNCc1ccc(C(=O)NC(C)C)cc1
- T/C (dose: 37.5 mg/kg/injection, schedule: Q01DX009 (ip), vehicle: water): 121 % of control
- T/C (dose: 40.0 mg/kg/injection, schedule: Q01DX009 (ip), vehicle: saline with Tween-80): 108 % of control
- T/C (dose: 54.0 mg/kg/injection, schedule: Q01DX009 (ip), vehicle: saline): 123 % of control
- T/C (dose: 90.0 mg/kg/injection, schedule: Q01DX009 (ip), vehicle: saline): 120 % of control
- T/C (dose: 250.0 mg/kg/injection, schedule: Q01DX009 (ip), vehicle: saline): 123 % of control
- T/C (dose: 320.0 mg/kg/injection, schedule: Q01DX009 (ip), vehicle: saline with Tween-80): 98 % of control

SMILES: COc1cccc2c1C(=O)c1c(O)c3c(c(O)c1C2=O)C[C@@](O)(C(=O)COC(=O)c1cccnc1)C[C@@H]3OC1CC(N)C(O)C(C)O1 (some centres undefined)
- T/C (dose: 0.19 mg/kg/injection, schedule: Q01DX001 (ip), vehicle: water): 92 % of control
- T/C (dose: 0.38 mg/kg/injection, schedule: Q01DX001 (ip), vehicle: water): 101 % of control
- T/C (dose: 0.75 mg/kg/injection, schedule: Q01DX001 (ip), vehicle: water): 108 % of control
- T/C (dose: 3.0 mg/kg/injection, schedule: Q01DX001 (ip), vehicle: water): 113 % of control and 239 % of control and 249 % of control
- T/C (dose: 6.0 mg/kg/injection, schedule: Q01DX001 (ip), vehicle: water): 103 % of control and 250 % of control and 255 % of control
- T/C (dose: 12.0 mg/kg/injection, schedule: Q01DX001 (ip), vehicle: water): 251 % of control and 323 % of control
- T/C (dose: 24.0 mg/kg/injection, schedule: Q01DX001 (ip), vehicle: water): 325 % of control

SMILES: CC(=O)N(C)c1ccc(/C=C2\C=Cc3ccccc32)cc1
- T/C (dose: 6.25 mg/kg/injection, schedule: Q01DX009 (ip), vehicle: saline with Tween-80): 96 % of control
- T/C [6]: 100 % of control
- T/C [8]: 102 % of control

SMILES: CCC(N)Cc1ccc(OC)c(OC)c1 (centres undefined)
- T/C [4]: 97 % of control
- T/C [2]: 102 % of control
- T/C [3]: 105 % of control

SMILES: CCc1nc(N)nc(N)c1-c1ccc(Cl)c(Cl)c1
- T/C (dose: 4.0 mg/kg/injection, schedule: Q01DX009 (ip), vehicle: Klucel (hydroxypropylcellulose) (HPC)): 95 % of control
- T/C (dose: 8.0 mg/kg/injection, schedule: Q01DX009 (sc), vehicle: Klucel (hydroxypropylcellulose) (HPC)): 123 % of control
- T/C (dose: 64.0 mg/kg/injection, schedule: Q01DX001 (ip), vehicle: Klucel (hydroxypropylcellulose) (HPC)): 102 % of control

SMILES: CN(C)c1nc(N)nc(Nc2ccc(Br)cc2)c1N=O
- T/C [3]: 118 % of control

SMILES: Oc1cc(N2CC2)c(O)cc1N1CC1
- T/C (dose: 0.22 mg/kg/injection, schedule: Q01DX009 (ip), vehicle: saline): 123 % of control
- T/C (dose: 0.44 mg/kg/injection, schedule: Q01DX009 (ip), vehicle: saline): 188 % of control
- T/C (dose: 0.68 mg/kg/injection, schedule: Q01DX009 (ip), vehicle: saline): 156 % of control and 159 % of control

SMILES: COc1cc(OC)cc(C(O)C(C)NC(C)C)c1 (centres undefined)
- T/C (dose: 6.25 mg/kg/injection, schedule: Q01DX009 (ip), vehicle: saline): 112 % of control
- T/C [11]: 87 % of control
- T/C [12]: 112 % of control

SMILES: C/C=C/C=C/c1cc2cc3c(c(O)c2c(=O)[nH]1)C1(CC3)C(O)=c2c(=O)c3c(=O)cc(OC)c(=O)c=3c(=O)c2=C1O (centres undefined)
- T/C (dose: 0.06 mg/kg/injection, schedule: Q01DX009 (ip), vehicle: DMSO): 98 % of control
- T/C (dose: 0.12 mg/kg/injection, schedule: Q01DX009 (ip), vehicle: DMSO): 99 % of control
- T/C (dose: 0.25 mg/kg/injection, schedule: Q01DX009 (ip), vehicle: DMSO): 96 % of control
- T/C (dose: 0.5 mg/kg/injection, schedule: Q01DX009 (ip), vehicle: DMSO): 120 % of control
